# pIC50: −log10 of the molar value. Read-outs that look alike come from different tables or passages of the source. *1 amine or outer side, *2 acyl side, *3 side chain or, on linkers, in order; H or OH if unused. Where a SMILES comes first, the peptide text is derived from it. [ ]: non-standard residue; d: D form. The star is where a group is joined. X1 = CO[C@@H](C1CCCN1[*:1])[C@@H](C)C(=O)[*:2]; Dil = CC[C@H](C)[C@H](NC)[C@@H](CC(=O)O)OC; PABC = O=C(OCc1ccc(N[*:1])cc1)[*:2]; Phosphonoacetyl = O=C(CP(=O)(O)O)*; X2 = C[C@@H](N*)[C@@H](O)c1ccccc1; NMeV = CN[C@H](C(=O)O)C(C)C
# Assays:
# [1] = tested on: A2058 melanoma cells subcutaneously implanted in nude NMRI mice; test: In vivo activity on A2058 melanoma xenograft; design: species or system mouse
# Protocol: The in vivo efficacy of PhAc-ALLP-PABC-MMAE was tested in a mouse melanoma model. A2058 melanoma cells were subcutaneously (SC) implanted in nude NMRI mice. In total, 36 adult (9-10 weeks old) nude female NMRI mice (Janvier, France) were subjected to SC tumor cell grafting in the right flank. In total, 3×10^6 A2058 cells resuspended in PBS plus Matrigel (1:1) were injected in 200 uL final volume. As soon as the tumors were palpable and reached the volume of 200 mm3 the treatment was started. At day zero, mice were randomly divided into 4 groups, based on the tumor volume, in order to have the following experimental sub-cohorts: • control group receiving the vehicle (PBS pH7.2) with a dose of 5 ml/kg, intravenously (iv), once per week (QW); • PhAc-ALLP-PABC-MMAE (2 mg/kg iv, QW); • PhAc-ALLP-PABC-MMAE (4 mg/kg iv, QW); • MMAE (0.9 mg/kg iv, QW).
# (§1) Treatments were performed once per week for a total of four tail vein administrations/injections (on days 1, 7, 14 and 21). Two extra weeks of observation followed the active treatment phase. During the experiment, tumor volume was measured two times a week and was assessed three-dimensionally with a digital caliper (Mitutoyo, Illinois) using the following formula:
# (§2) V=4/3π×[(d/2)^2×(D/2)], where d is the minor tumor axis and D is the major tumor axis.
# A2780 cells = test: WST-1 cell viability, A2780 ovarian cancer cells; assay type: cell-based; conditions: for SI = HME-1 IC50/cancer IC50: A2780 (OvC) vs HME-1 (Table 3); for pIC50: WST-1 (Table 1), read-out: Absolute IC50
# Protocol: (§3) All commercial cell lines were purchased at ATCC (LGC Standards SARL, France). Cells were seeded in 96-well plates according to their optimal seeding density, varying between 5.000 and 10.000 cells/well. After attachment overnight, 10-point serial titrations (1:5) were prepared in their equivalent complete media as recommended by ATCC, starting from the 10 mM stock solutions. For doxorubicin comprising prodrugs dilutions started from 100 μM, while for the parent compound doxorubicin dilutions started at 10 μM. […] Seventy-two hours later, compounds were removed together with the supernatants and cells were washed once with PBS to remove excess drugs.
# (§4) The WST-1 assay for cell proliferation and viability (Roche, Switzerland) was performed according to manufacturer's protocol. Absorbances were measured at 4 hrs using a Perkin Elmer Ensight multiplate reader, equipped with Kaleido 2.0 software (Perkin Elmer, USA). Cell viability was expressed as a percentage compared to non-treated cells. Absolute IC50 values were extrapolated from a non-linear fitting following the Sigmoidal-4PL regression method using Graphpad Prism 7.0. Likewise, maximal efficacy was determined as 100% minus the cell viability determined when cells are incubated in the presence of a compound. For instance, if 20% of the cells survive incubation in the presence of a compound, then the maximal efficacy of that compound is 100%-20%=80%.
# (§5) Selectivity indices (SI) were defined as the ratio of the concentration of drug required to kill 50% of the cells in normal (control, non-cancer) cells, divided by the concentration required to exert the same efficacy in tumor cells: SI=IC50 (control cell)/IC50 (cancer cell), or SI=^HME-1IC50/cancer IC50.
# [2] = tested on: U87 MG glioblastoma cells subcutaneously implanted in nude NMRI mice; test: In vivo activity of PhAc-ALLP-Dox on U87 MG glioblastoma xenograft; design: species or system mouse; conditions: once per week
# Protocol: The in vivo efficacy of PhAc-ALLP-Dox was tested in a mouse GBM model. U87 MG glioblastoma cells were subcutaneously (SC) implanted in nude NMRI mice. In total, 32 adult (9-10 weeks old) nude female NMRI mice (Janvier, France) were subjected to SC tumor cell grafting in the right flank. In total, 5×10^6 U87 MG cells resuspended in PBS plus Matrigel (1:1) were injected in 200 uL final volume. As soon as the tumors were palpable and reached the volume of 200 mm3 the treatment was started. At day zero, mice were randomly divided into 4 groups, based on the tumor volume, in order to have the following experimental sub-cohorts: • control group receiving the vehicle (PBS pH7.2) with a dose of 5 ml/kg, intravenously (iv), once per week (QW); • PhAc-ALLP-Dox (30 mg/kg iv, QW); • PhAc-ALGP-Dox (154 mg/kg iv, QW); • Dox (5 mg/kg iv, QW).
# as §1, with “One” for “Two”, “week” for “weeks”
# as §2
# [3] = WST-1 cell viability, normal HME-1 cells; assay type: cell-based, human; conditions: human
# Method in brief: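 Viability was measured by WST-1 absorbance 4 h after reagent addition, expressed relative to non-treated cells. Beforehand, overnight-attached cells had been treated for seventy-two hours with ten-point 1:5 dilution series and washed with PBS. IC50 values came from four-parameter sigmoidal fitting.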
# MDA-MB-468 cells = test: WST-1 cell viability, MDA-MB-468 triple negative breast cancer cells; assay type: cell-based; conditions: for pIC50: WST-1 (Table 1), read-out: Absolute IC50; for SI = HME-1 IC50/cancer IC50: MDA-MB-468 (TNBC) vs HME-1 (Table 3)
# Protocol: as §3, §4, §5
# NCI-1299 cells = test: WST-1 cell viability, NCI-H1299 lung cancer cells; assay type: cell-based; conditions: for pIC50: WST-1 (Table 1), read-out: Absolute IC50; for SI = HME-1 IC50/cancer IC50: NCI-1299 (NSCLC) vs HME-1 (Table 3)
# Protocol: as §3, §4, §5
smiles,measurement,setting,value
CC[C@H](C)[C@@H]([C@@H](CC(=O)N1CCCC1[C@H](OC)[C@@H](C)C(=O)N[C@H](C)[C@@H](O)c1ccccc1)OC)N(C)C(=O)[C@@H](NC(=O)[C@H](C(C)C)N(C)C(=O)OCc1ccc(NC(=O)[C@@H]2CCCN2C(=O)[C@H](CC(C)C)NC(=O)[C@H](CC(C)C)NC(=O)[C@H](C)NC(=O)CP(=O)(O)O)cc1)C(C)C (stereo partly drawn) [PhAc-ALLP-PABC-MMAE] (Phosphonoacetyl-ALLP[PABC][NMeV]V[Dil][X1]-X2),Tumor volume compared to the untreated control group,"[1]; 2 mg/kg iv, once per week, four administrations",importantly reduced the tumor volume
same,Response,"[1]; 2 mg/kg iv, once per week, observed until day 34",Complete response
same,Relapse and macroscopical toxicity,"[1]; 2 mg/kg iv, once per week, until day 34",without any hint of relapse or macroscopical sign of toxicity
same,Tumor growth,"[1]; higher concentration (4 mg/kg iv, once per week)",important reduction of tumor growth
same,Reduction of body weight,"[1]; higher concentration (4 mg/kg iv, once per week), sacrificed at day 21",> 20%
"COc1cccc2c1C(=O)c1c(O)c3c(c(O)c1C2=O)C[C@@](O)(C(=O)CO)C[C@@H]3O[C@H]1C[C@H](N)[C@H](O)[C@H](C)O1 [Doxorubicin, reference compound]",SI = HME-1 IC50/cancer IC50,A2780 cells,9.15
same,pIC50,"A2780 cells; Homo sapiens, A2780 (OvC), 72 hrs",> 8.00
same,cytotoxicity at 100 µM,"A2780 cells; Homo sapiens, A2780 (OvC), 72 hrs, WST-1 (Table 2), read-out: Maximal efficacy, cytotoxicity (%) at 100 μM",96%
same,Tumor growth,[2]; 5 mg/kg iv,significantly reduced tumor growth
same,"cytotoxicity at 72 h, 100 µM",[3],96.5%
same,pIC50,"MDA-MB-468 cells; Homo sapiens, MDA-MB-468 (TNBC), 72 hrs",> 8.00
same,cytotoxicity at 100 µM,"MDA-MB-468 cells; Homo sapiens, MDA-MB-468 (TNBC), 72 hrs, WST-1 (Table 2), read-out: Maximal efficacy, cytotoxicity (%) at 100 μM",95.5%
same,SI = HME-1 IC50/cancer IC50,MDA-MB-468 cells,12.64
same,pIC50,"NCI-1299 cells; Homo sapiens, NCI-H1299, NCI-1299 (NSCLC), 72 hrs",7.52
same,cytotoxicity at 100 µM,"NCI-1299 cells; Homo sapiens, NCI-H1299, NCI-1299 (NSCLC), 72 hrs, WST-1 (Table 2), read-out: Maximal efficacy, cytotoxicity (%) at 100 μM",92.9%
same,SI = HME-1 IC50/cancer IC50,NCI-1299 cells,1.33
"COc1cccc2c1C(=O)c1c(O)c3c(c(O)c1C2=O)C[C@@](O)(C(=O)CO)C[C@@H]3O[C@H]1C[C@H](NC(=O)[C@@H]2CCCN2C(=O)[C@H](CC(C)C)NC(=O)[C@H](CC(C)C)NC(=O)[C@H](C)NC(=O)CP(=O)(O)O)[C@H](O)[C@H](C)O1 [PhAc-ALLP-Dox, PhAc-ALLP-Doxorubicin] (HELM PEPTIDE1{[O=C(CP(=O)(O)O)[*:2]].A.L.L.P.[COc1cccc2c1C(=O)c1c(O)c3c(c(O)c1C2=O)C[C@@](O)(C(=O)CO)C[C@@H]3O[C@H]1C[C@H](N[*:1])[C@H](O)[C@H](C)O1]}$$$$V2.0)",SI = HME-1 IC50/cancer IC50,A2780 cells,701.33
same,pIC50,"A2780 cells; A2780 (OvC), 72 hrs",7.30
same,"Maximal efficacy, cytotoxicity (%) at 100 μM","A2780 cells; A2780 (OvC), 72 hrs, WST-1 (Table 2)",90.59%
same,Tumor volume compared to the untreated control group,"[2]; 30 mg/kg iv, four administrations",importantly reduced the tumor volume
same,"cytotoxicity at 72 h, 100 µM","[3]; HME-1 normal cells, 72 hrs, WST-1 (Table 2), read-out: Maximal efficacy, cytotoxicity (%) at 100 μM",59.5%
same,SI = HME-1 IC50/cancer IC50,MDA-MB-468 cells,20.94
same,pIC50,"MDA-MB-468 cells; MDA-MB-468 (TNBC), 72 hrs",5.75
same,"Maximal efficacy, cytotoxicity (%) at 100 μM","MDA-MB-468 cells; MDA-MB-468 (TNBC), 72 hrs, WST-1 (Table 2)",87.18%
same,SI = HME-1 IC50/cancer IC50,NCI-1299 cells,27.39
same,pIC50,"NCI-1299 cells; NCI-1299 (NSCLC), 72 hrs",5.87
same,"Maximal efficacy, cytotoxicity (%) at 100 μM","NCI-1299 cells; NCI-1299 (NSCLC), 72 hrs, WST-1 (Table 2)",70.15%
